Experimental data: the supplement of paper PMC10307832

Legend:
Experiment in all cases: relative viability (nuclei count vs DMSO), 5 days (fraction); higher = more cells survive
Sulindac + Luminespib = compound: CC1=C(CC(=O)O)c2cc(F)ccc2/C1=C\c1ccc([S+](C)[O-])cc1 [Sulindac] + CCNC(=O)c1noc(-c2cc(C(C)C)c(O)cc2O)c1-c1ccc(CN2CCOCC2)cc1 [Luminespib] (partner 0.01 µM)
Procedure, shortened: (§1)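 For relative viability, nuclei counts in treated wells were divided by those in vehicle wells. Lung cancer cell lines had been pin-tool dosed in 1536-well plates the day after seeding and cultured for 5 days, then fixed and stained in one step (final 0.05% Triton X-100, 1% formaldehyde, 1 ug/ml Hoechst) and imaged at 4×. Doses were one drug alone or a fixed anchor-drug dose plus five library-drug doses (not always all listed) in √10 steps, and values are duplicate-plate medians.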

[1] = compound: O=c1[nH]cc(F)c(=O)[nH]1 [5-Fluorouracil] + CS(=O)(=O)N1CCN(Cc2cc3nc(-c4cccc5[nH]ncc45)nc(N4CCOCC4)c3s2)CC1 [Pictilisib] (partner 1 µM)
Procedure, shortened: as §1

Sulindac + AZD7762 = compound: CC1=C(CC(=O)O)c2cc(F)ccc2/C1=C\c1ccc([S+](C)[O-])cc1 [Sulindac] + NC(=O)Nc1cc(-c2cccc(F)c2)sc1C(=O)N[C@H]1CCCNC1 [AZD7762] (partner 0.2 µM)
Procedure, shortened: as §1

Sulindac + Lapatinib = compound: CC1=C(CC(=O)O)c2cc(F)ccc2/C1=C\c1ccc([S+](C)[O-])cc1 [Sulindac] + CS(=O)(=O)CCNCc1ccc(-c2ccc3ncnc(Nc4ccc(OCc5cccc(F)c5)c(Cl)c4)c3c2)o1 [Lapatinib] (partner 2 µM)
Procedure, shortened: as §1

Cell Line | relative viability (Sulindac + Luminespib; first compound 0.08 µM) | relative viability (Sulindac + Luminespib; first compound 0.253 µM) | relative viability (Sulindac + Luminespib; first compound 2.53 µM) | relative viability (Sulindac + Luminespib; first compound 8 µM) | relative viability ([1]; first compound 0.02 µM) | relative viability ([1]; first compound 0.2 µM) | relative viability ([1]; first compound 0.6325 µM) | relative viability ([1]; first compound 2 µM) | relative viability (Sulindac + AZD7762; first compound 0.08 µM) | relative viability (Sulindac + AZD7762; first compound 0.253 µM) | relative viability (Sulindac + AZD7762; first compound 2.53 µM) | relative viability (Sulindac + AZD7762; first compound 8 µM) | relative viability (Sulindac + Lapatinib; first compound 0.08 µM) | relative viability (Sulindac + Lapatinib; first compound 0.253 µM) | relative viability (Sulindac + Lapatinib; first compound 0.8 µM) | relative viability (Sulindac + Lapatinib; first compound 2.53 µM) | relative viability (Sulindac + Lapatinib; first compound 8 µM) | relative viability (Sulindac + Luminespib; first compound 0.8 µM) | relative viability (Sulindac + AZD7762; first compound 0.8 µM)
NCI-H358 | 0.202 | 0.384 | 0.46 | 0.359 | 0.337 | 0.354 | 0.337 | 0.294 | 0.45 | 0.517 | 0.427 | 0.651 | 0.457 | 0.439 | 0.474 | 0.44 | 0.564 |  | 
NCI-H1755 | 0.546 | 0.829 | 0.536 | 0.486 | 0.453 | 0.5 | 0.301 | 0.184 | 0.424 | 0.429 | 0.456 | 0.498 | 1.34 | 1.04 | 0.912 | 1.06 | 1.19 | 0.399 | 0.628
A-427 | 1.05 | 0.835 | 0.781 | 1.07 | 0.664 | 0.823 | 0.581 | 0.587 | 0.742 | 0.692 | 0.727 | 0.808 | 1.23 | 1.02 | 1.07 | 1.05 | 1.1 | 1.06 | 1.01
PC-14 | 0.164 | 0.152 | 0.152 | 0.127 | 0.711 | 0.763 | 0.7 | 0.415 | 0.377 | 0.315 | 0.284 | 0.364 | 0.349 | 0.379 | 0.315 | 0.276 | 0.311 | 0.15 | 0.35
LCLC-97TM1 | 0.978 | 0.847 | 0.644 | 0.876 | 0.184 | 0.235 | 0.133 | 0.139 | 0.274 | 0.377 |  | 0.232 | 0.962 | 1.45 | 0.83 |  | 1.37 | 0.673 | 0.171
BEN | 0.23 | 0.373 | 0.472 | 0.326 | 0.557 | 0.597 | 0.536 | 0.555 | 0.728 | 0.727 | 0.604 | 0.776 | 0.785 | 0.714 | 0.695 | 0.754 | 0.995 | 0.597 | 0.598
NCI-H2085 | 0.39 | 0.414 | 0.428 | 0.36 | 0.461 | 0.504 | 0.445 | 0.507 | 0.904 | 0.988 | 0.945 | 0.95 | 0.746 | 0.693 | 0.668 | 0.69 | 0.777 | 0.426 | 0.834
LC-2-ad | 1.03 | 0.947 | 0.994 | 1.18 | 0.57 | 0.442 | 0.324 | 0.231 | 0.972 | 0.906 | 0.815 | 0.944 | 1.1 | 1.04 | 0.893 | 1.02 | 1.02 | 1.07 | 0.701
ABC-1 | 0.397 | 0.415 |  | 0.71 | 0.885 | 0.682 | 0.59 | 0.599 | 1.16 |  | 0.682 | 0.751 |  | 1.23 | 1.13 | 1.28 | 1.24 | 0.687 | 0.636
NCI-H1792 | 0.409 | 0.475 | 0.384 | 0.627 | 0.337 | 0.243 | 0.113 | 0.0763 | 0.98 | 0.647 | 0.766 | 0.703 | 1.13 | 0.982 |  | 0.947 | 1.12 |  | 
EPLC-272H | 0.211 | 0.167 | 0.262 | 0.255 | 0.337 | 0.294 | 0.199 | 0.221 | 0.432 |  | 0.155 | 0.263 | 0.987 |  | 0.602 | 0.78 | 1.24 |  | 0.53
NCI-H1437 | 1.33 | 1.1 | 1.25 | 1.25 |  | 0.183 | 0.116 | 0.1 | 1.18 | 1.12 | 1.14 | 1.11 | 0.884 | 1.01 | 0.593 | 0.856 | 1.1 | 0.912 | 1.1
EKVX | 0.755 | 0.792 | 0.887 | 0.897 |  |  | 0.151 | 0.115 | 0.755 | 0.902 | 0.763 | 0.809 | 0.193 | 0.186 | 0.21 | 0.18 | 0.111 | 0.768 | 0.571
NCI-H1651 | 1.08 | 0.897 | 0.8 | 0.948 | 0.523 | 0.57 | 0.412 | 0.444 | 0.516 | 0.508 | 0.492 | 0.506 | 1.07 | 0.836 | 0.736 | 0.829 | 1.09 |  | 0.318
HCC-15 | 0.588 | 0.351 | 0.431 | 0.389 | 0.903 | 0.762 | 0.539 | 0.315 | 1.11 | 1.44 | 1.23 | 1.16 | 1.06 | 0.87 | 0.763 | 0.801 | 0.914 | 0.304 | 0.883
NCI-H2347 | 0.302 | 0.478 | 0.411 | 0.519 | 0.688 | 0.44 | 0.407 | 0.363 | 0.711 | 0.778 | 0.737 | 0.817 | 0.986 | 0.95 | 0.694 | 0.85 | 1.06 |  | 0.653
NCI-H1915 | 1.07 | 0.883 | 0.909 | 0.813 | 0.958 | 0.908 | 1.01 | 0.773 | 0.703 | 0.734 | 0.664 | 0.761 | 1.24 | 1.09 | 0.842 | 0.913 | 1.1 |  | 0.645
NCI-H650 | 0.796 | 0.87 | 0.644 | 0.935 | 0.823 | 0.674 | 0.45 | 0.387 | 1.03 | 0.899 | 0.914 | 0.978 | 1.08 | 0.977 | 0.598 | 0.767 | 1.07 | 0.659 | 0.766
NCI-H596 | 1.08 | 0.99 | 1 | 0.993 | 0.47 | 0.375 | 0.365 | 0.365 | 1.06 | 1.16 | 1.23 | 1.27 | 1.02 | 0.983 | 1.01 | 0.973 | 1.21 | 0.915 | 
NCI-H2087 | 0.196 | 0.164 | 0.148 | 0.167 | 0.912 | 0.916 | 0.607 | 0.602 | 1.73 | 1.52 | 1.48 | 1.4 | 1.28 | 1.04 | 1.27 | 1.08 | 1.22 |  | 0.983
RERF-LC-KJ | 1.06 | 1.47 | 1.23 | 1.64 | 0.587 | 0.593 | 0.604 | 0.465 | 1.41 | 1.18 | 0.993 | 1.05 | 0.888 | 0.934 | 0.685 | 0.862 | 0.943 | 1.18 | 0.632
HOP-62 | 1.34 | 0.974 | 0.977 | 0.942 | 0.711 | 0.879 | 0.705 | 0.569 | 0.577 | 0.565 | 0.717 | 0.953 | 1.19 | 1.24 | 0.929 | 1.15 | 1.19 | 0.708 | 0.556
NCI-H2126 | 0.963 | 0.804 | 0.991 | 0.955 | 0.504 | 0.354 | 0.305 | 0.306 | 1.12 | 1.03 | 1.01 | 1.09 | 0.793 | 0.722 | 0.758 | 0.773 | 0.861 | 0.888 | 0.889
NCI-H1793 | 0.188 | 0.168 | 0.169 | 0.265 | 0.37 | 0.376 | 0.303 | 0.247 | 0.41 | 0.537 | 0.441 | 0.33 | 0.731 | 0.778 | 0.533 | 0.795 | 0.787 | 0.163 | 
H3255 | 0.85 | 0.958 | 0.954 | 1.05 | 0.462 | 0.498 | 0.495 | 0.386 | 0.884 | 0.931 | 0.867 | 1.11 | 0.206 | 0.217 | 0.42 | 0.21 | 0.276 | 0.847 | 0.627
EMC-BAC-2 | 1.04 | 1.23 | 1.23 | 1.22 | 0.616 | 0.56 | 0.506 | 0.536 | 1.22 | 1.2 | 1.04 | 1.35 | 0.945 | 0.973 | 0.682 | 0.88 | 0.93 | 0.802 | 0.849
CAL-12T | 0.556 | 0.3 | 0.485 | 0.524 | 0.461 | 0.717 | 0.346 | 0.394 | 0.586 | 0.717 | 0.622 | 0.708 | 0.697 | 0.64 | 0.583 | 0.545 | 0.806 | 0.311 | 0.497
NCI-H727 | 0.223 | 0.338 | 0.299 | 0.443 | 0.395 | 0.464 | 0.369 | 0.305 | 0.575 | 0.643 | 0.582 | 0.616 | 0.968 | 0.799 | 0.767 | 0.699 | 1.19 |  | 0.473
NCI-H1355 | 0.612 | 0.668 | 0.601 | 0.702 | 0.482 | 0.493 | 0.361 | 0.33 | 0.842 | 0.748 | 0.765 | 0.858 | 1.16 | 1.05 | 0.881 | 0.956 | 1.13 |  | 0.71
